Where two headings read alike, the source gives them in different places.
Experiments:
[1] = test system: HBV-transgenic mice (Strain HBV1.3.32); assay type: in vivo, mouse
[2] = test system: HBV-transgenic mice (Strain HBV1.3.32); settings: mouse, in vivo
HBVtg mice = settings: mouse, in vivo
[3] = test system: chronic Hepatitis B virus (HBV)-infection; settings: cited from earlier work
[4] = middle and high antigenemic HBVtg mice, day 34

| Molecule | titers of anti-HBc antibodies, c-di-AMP compared to CpG/PCEP regimen ([1]; day 34, p<0.05) | impact on serum HBeAg levels ([1]; high antigenemic HBVtg mice, HBsAg+HBcAg prime twice, MVA-S/core boost day 28, day 34) | HBV replication, detected indirectly by HBeAg levels ([1]; i.m. route) | HBsAg to anti-HBs seroconversion [1, 4] | anti-HBc responses [1, 4] | HBV replication, detected indirectly by HBeAg levels ([1]; s.c./i.p. routes) | adjuvant efficacy for therapeutic protein prime-MVA boost vaccination [2] | difference in magnitude of HBV-specific CD8+ T cell responses between c-di-AMP and CpG/PCEP regimens [2] | efficacy as adjuvant for therapeutic protein prime-MVA boost vaccination [2] | efficacy in i.m. versus s.c./i.p. application routes [2] | liver damage / increase in ALT (HBVtg mice) | patients in whom therapy is curative [3] |
| --- | --- | --- | --- | --- | --- | --- | --- | --- | --- | --- | --- | --- |
| Nc1ncnc2c1ncn2[C@@H]1O[C@@H]2COP(=O)(O)O[C@H]3[C@@H](O)[C@H](n4cnc5c(N)ncnc54)O[C@@H]3COP(=O)(O)O[C@H]2[C@H]1O [c-di-AMP, bis-(3′,5′)-cyclic dimeric adenosine monophosphate] | significantly higher titers | Neither c-di-AMP nor CpG/PCEP immunization protocol had an impact | lower HBV replication | HBsAg to anti-HBs seroconversion in all examined HBVtg mice | significant anti-HBc responses | lower HBV replication | potent adjuvant | no statistically significant difference | very potent adjuvant | equally effective | mild T-cell-induced liver damage |  |
| Interferon α |  |  |  |  |  |  |  |  |  |  |  | 15-20% |

Source: US10912827B2 (priority 2016, dated 2021)
